The target in assay [1] is T1, P-Rex1 DHPH domains (Homo sapiens, UniProt Q8TCU6).
T1 construct: 100 nM EE-P-Rex1 DHPH domains (PREX-in1, compounds 2–10 and 30–128); made in house; host or cells: Sf9 cells (baculovirus)
Briefly: Liposome-based GEF activity assay, isolated P-Rex1 DHPH domains. The assay is classed as biochemical. The note with it: for P-Rex1 Rac-GEF activity reduced to / remaining activity at 10 µM: 10 µM compound; for P-Rex1 Rac-GEF activity reduced to: P-Rex1 DHPH domains; for IC50: liposome-based GEF assay, 200 nM prenylated EE-Rac2 as substrate, read-out: IC50 of inhibition of P-Rex1 DHPH Rac-GEF activity. The protocol:
(§1) Full-length N-terminally EE-tagged P-Rex1, P-Rex2, the P-Rex1 DH and DHPH domains and the P-Rex2 DH domain were produced in Sf9 cells using baculoviral transduction and were purified using anti-EE beads, as previously described. Briefly, frozen pellets from 500 ml of Sf9 culture infected with P-Rex expressing high-titre baculovirus were resuspended in ice-cold lysis Sf9-cell lysis buffer 2 (1x PBS, 1% Triton X-100, 5 mM EGTA, 1 mM EDTA, 25 mM NaF, 20 mM β-glycerophosphate, 1 mM DTT, 100 µM PMSF, 10 μg/ml each of leupeptin, pepstatin A, aprotinin and antipain) for 5 min and then ultracentrifuged at 118,000 × g for 1 h at 4°C. Supernatants were incubated with pre-washed anti-EE beads for 90 min on ice with end-over-end rotation. Beads were washed 4 times in wash buffer (2x PBS, 0.1% Triton X-100, 1 mM EGTA) and 5 times in elution buffer (1x PBS, 10% glycerol, 1 mM DTT, 1 mM EGTA, 0.01% Na azide), and protein was eluted by incubation with elution buffer containing Ac-EEYMPME peptide as described above. Protein was concentrated in a YM-100 Centricon (Millipore) at 5000 × g at 4°C. Fatty acid-free BSA and glycerol were added to final concentrations of 2 mg/ml and 50%, respectively. Protein concentration and purity were determined by coomassie staining of SDS-PAGE gels. Full-length Tiam1, expressed in and purified from Sf9 cells, was a kind gift from Angeliki Malliri, CRUK Manchester Institute, UK. The ITSN1 DHPH domains and Ect2 DHPH domains, produced in and purified from bacteria, were a kind gift from Kent Rossman, University of North Carolina, Chapel Hill, USA. The DOCK10 DHR2 domain, produced in and purified from bacteria, was a kind gift from Danni Fan, Institute of Cancer Research, London, UK. All small GTPase and GEF proteins were stored in aliquots at −80°C and were snap-frozen in liquid N2 after each use.
Liposome-based GEF activity assays were carried out essentially as described, except that GEFs were incubated with inhibitor compounds prior to the assay. GEFs (full-length P-Rex1, P-Rex2, and Tiam1, P-Rex1 DH and DHPH domains, P-Rex2 DH domain, ITSN1 DHPH domains, ECT2 DHPH domains or DOCK10 DHR2 domain) were diluted in 20 mM HEPES (pH 7.0 at 4°C), 200 mM KCl, 10% ethylene glycerol, 1% betaine, 500 µM EGTA, 0.01% azide. […] The final 10 µl samples contained GTPase, GEF and inhibitor at concentrations as stated, in 20 mM HEPES pH 7.5, 100 mM NaCl, 1 mM MgCl2, 1 mM EGTA, 1 mM DTT, 10 mg/ml fatty acid-free BSA, liposomes consisting of phosphatidylcholine, -serine and -inositol (200 µM each), with or without 10 µM PIP3, 1 µM GTPγS and 80 nM (1 µCi) ^35S-GTPγS. Positive controls contained additionally 2 mM EDTA to induce maximal GTP-loading of the GTPase. Samples were incubated at 30°C for 10 min, and reactions were stopped by the addition of 400 µl ice-cold wash buffer (1x PBS, 1 mM EGTA, 10 mM MgCl2, 1% Triton X-100, 100 µM GTP). Small GTPases were isolated using anti-EE antibody-coupled Sepharose beads or glutathione Sepharose beads, as appropriate, by incubation on ice for 90 min with end-over-end rotation, four washes in ice-cold wash buffer and resuspension of beads in Ultima Gold scintillation fluid (Perkin Elmer). ^35S-GTPγS incorporation was assessed by scintillation counting (Packard 1600TR, Liquid Scintillation Analyser).

In assay [2] the target is T2, P-Rex1 DH domain (Homo sapiens, UniProt Q8TCU6).
T2 construct: 200 nM iDH EE-P-Rex1 DH domain (compounds 11–29); made in house; host or cells: Sf9 cells (baculovirus)
T2 sequence (Q8TCU6 49-240 limits assumed): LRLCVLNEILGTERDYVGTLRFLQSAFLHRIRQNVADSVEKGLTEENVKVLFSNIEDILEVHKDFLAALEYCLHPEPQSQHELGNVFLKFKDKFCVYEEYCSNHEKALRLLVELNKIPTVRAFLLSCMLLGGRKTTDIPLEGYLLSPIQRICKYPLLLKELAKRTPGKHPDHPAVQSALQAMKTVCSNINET
Briefly: Liposome-based GEF activity assay, isolated P-Rex1 DH domain. The assay is classed as biochemical. Particulars: 10 µM compound. The protocol: as §1, with “The ITSN1 DHPH domains and Ect2 DHPH domains, produced in and purified from bacteria, were a kind gift from Kent Rossman, University of North Carolina, Chapel Hill, USA. The DOCK10 DHR2 domain, produced in and purified from bacteria, was a kind gift from Danni Fan, Institute of Cancer Research, London, UK. All small GTPase and GEF proteins were stored in aliquots at −80°C and were snap-frozen in liquid N2 after each use.” left out
Liposome-based GEF activity assays were carried out essentially as described, except that GEFs were incubated with inhibitor compounds prior to the assay. […] Small GTPases were isolated using anti-EE antibody-coupled Sepharose beads or glutathione Sepharose beads, as appropriate, by incubation on ice for 90 min with end-over-end rotation, four washes in ice-cold wash buffer and resuspension of beads in Ultima Gold scintillation fluid (Perkin Elmer). ^35S-GTPγS incorporation was assessed by scintillation counting (Packard 1600TR, Liquid Scintillation Analyser).

The mark [3] stands for this setting: 100 nM EE-P-Rex1 DHPH domains, 200 nM prenylated EE-Rac1, PREX-in1, compounds 2-10 and 30-128.

The remaining activity is the signal under treatment as a percentage of the control signal. As usually defined, the IC50 is the concentration that gives 50% inhibition.

T1 sequence (Q8TCU6 49-392 limits assumed): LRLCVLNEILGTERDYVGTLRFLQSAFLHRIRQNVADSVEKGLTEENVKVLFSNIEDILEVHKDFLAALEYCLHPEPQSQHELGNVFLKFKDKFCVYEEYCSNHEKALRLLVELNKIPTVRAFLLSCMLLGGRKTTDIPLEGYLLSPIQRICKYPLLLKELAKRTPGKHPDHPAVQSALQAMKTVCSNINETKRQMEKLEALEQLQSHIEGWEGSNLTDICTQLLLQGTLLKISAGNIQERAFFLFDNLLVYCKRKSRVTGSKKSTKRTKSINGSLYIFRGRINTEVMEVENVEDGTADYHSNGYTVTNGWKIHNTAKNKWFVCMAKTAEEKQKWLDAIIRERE

Regarding `N#CC1=C(N)Oc2n[nH]c(-c3ccc(C(F)(F)F)cc3)c2C1c1ccc(-c2ccc(Cl)cc2)o1` (stereo not shown) [#116], in assay [1], the “P-Rex1 Rac-GEF activity reduced to” value is recorded as “below 10%” and the IC50 came out at 2700 nM. Also, the remaining activity at 10 µM in assay [1] (setting [3]) was found to be 9%.
Consider `CCc1[nH]nc2c1C(c1ccc(-c3ccc(Cl)cc3)o1)C(C#N)=C(N)O2` (stereo not shown) [#26], for which, in assay [2] (P-Rex1 DH domain), the “P-Rex1 Rac-GEF activity reduced to” value was “below 10%”. Further, the remaining activity at 10 µM in assay [2] (200 nM EE-P-Rex1 DH domain, 200 nM prenylated EE-Rac1, compounds 11-29) came out at 4%.
In the case of `COc1ccc(-c2ccc(C3C(C#N)=C(N)Oc4n[nH]c(-c5ccc(C)cc5)c43)o2)cc1Cl` (stereo not shown) [#72], in assay [1], the “P-Rex1 Rac-GEF activity reduced to” value is listed as “below 10%”. For the same compound, the remaining activity at 10 µM in assay [1] (setting [3]) was 1.69%.
As to `COc1cc(NC(=O)c2ccc(-c3ccc(Cl)cc3)o2)cc(OC)c1` [#66], the “% P-Rex1 activity remaining” value in assay [1] (setting [3]) worked out at 58%.
Regarding `COc1ccc(-c2ccc(C3C(C#N)=C(N)Oc4n[nH]c(-c5ccc(Cl)cc5)c43)o2)cc1Cl` (stereo not shown) [#76], the “P-Rex1 Rac-GEF activity reduced to” value in assay [1] is “below 10%”. In addition, in assay [1] (setting [3]), the remaining activity at 10 µM was -2.19%.
Turning to `COc1ccc(-c2[nH]nc3c2C(c2ccc(-c4ccc(OC)c(Cl)c4)o2)C(C#N)=C(N)O3)cc1` (stereo not shown) [#61], in assay [1], the “P-Rex1 Rac-GEF activity reduced to” value is listed as “below 10%” and the IC50 is 2000 nM. Also, the remaining activity at 10 µM in assay [1] (setting [3]) came to 2%.

(Values after paper PMC9645260, “Small-molecule inhibitors of P-Rex guanine-nucleotide exchange factors” (Small GTPases, 2022).)
